“And” between values parts separate entries of the source, which are not always exact repeats. Equal entries are not always repeated. “Also recorded” adds a separate entry of the source.
Key:
p75^NTR TMD [1] = molecular target: p75^NTR TMD (Homo sapiens, UniProt P08138); test: 2D NMR (1H-15N TROSY-HSQC) chemical shift perturbation, p75NTR TMD in bicelles; settings: 4 molar excess compound
Target sequence in this assay (P08138 240-274 limits assumed): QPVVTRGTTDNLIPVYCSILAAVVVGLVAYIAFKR

p75^NTR TMD I252A = molecular target: T1, p75^NTR TMD I252A (Homo sapiens, UniProt P08138, I252A); test: AraTM assay, I252A mutant p75NTR TMD; format: cell-based; settings: for GFP/OD630, Mean / GFP/OD630, individual replicates: I252A
T1 construct: Comparison of wild-type (WT) p75^NTR TMD and I252A, P253G and V254A mutants in the AraTM assay; expressed in transfected cells; host or cells: E. coli AS19 (LPS-negative)
T1 sequence (P08138 250-275 I252A): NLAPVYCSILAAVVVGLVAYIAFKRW

p75^NTR TMD V254A = molecular target: T2, p75^NTR TMD V254A (Homo sapiens, UniProt P08138, V254A); test: AraTM assay, V254A mutant p75NTR TMD; format: cell-based; settings: for GFP/OD630, Mean / GFP/OD630, individual replicates: V254A;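 for GFP/OD630, Mean: normalised to the no-drug GFP/OD630 signal set at 100%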;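 for GFP/OD630, individual replicates: normalised to the no-drug GFP/OD630 signal set at 100%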
T2 construct: Comparison of wild-type (WT) p75^NTR TMD and I252A, P253G and V254A mutants in the AraTM assay; expressed in transfected cells; host or cells: E. coli AS19 (LPS-negative)
T2 sequence (P08138 250-275 V254A): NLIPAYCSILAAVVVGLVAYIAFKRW

p75^NTR TMD P253G = molecular target: T3, p75^NTR TMD P253G (Homo sapiens, UniProt P08138, P253G); test: AraTM assay, P253G mutant p75NTR TMD; format: cell-based; settings: for GFP/OD630, Mean / GFP/OD630, individual replicates: P253G
T3 construct: Comparison of wild-type (WT) p75^NTR TMD and I252A, P253G and V254A mutants in the AraTM assay; expressed in transfected cells; host or cells: E. coli AS19 (LPS-negative)
T3 sequence (P08138 251-272 P253G limits assumed): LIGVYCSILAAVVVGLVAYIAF

p75^NTR TMD [2] = molecular target: T4, p75^NTR TMD (Homo sapiens, UniProt P08138); test: AraTM assay, wild-type p75NTR TMD (GFP/OD630); format: cell-based
T4 sequence (P08138 250-275 limits assumed): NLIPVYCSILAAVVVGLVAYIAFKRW

A875 melanoma cells (NT) = test: Cleaved PARP western blot (apoptosis), A875 NT; format: cell-based, human
Protocol: One of the main biological readouts of p75^NTR activity in response to neurotrophins is the induction of caspase-mediated apoptotic cell death (Underwood and Coulson, [2008]; Friedman, [2010]; Ibáñez and Simi, [2012]).
COS7, A875 and WM115 cell lines were cultured under standard conditions in DMEM supplemented with 10% fetal calf serum, 100 units/ml penicillin, […] streptomycin, and 2.5 mM glutamine. All cells were authenticated and tested for mycoplasma contamination. A875-NT (control) and A875 shp75 (knockdown) cell lines were described previously (Goh et al, [2018]).

[3] = wt, compound 10 μM, Figure 5C-E
[4] = wt, compound 20 μM, Figure 5C-E
[5] = wt, compound 30 μM, Figure 5C-E
[6] = wt, compound 40 μM, Figure 5C-E

For Cc1cccc(-c2cncc(Nc3ccc(Br)c(Cl)c3Cl)n2)c1C [Np75-4A22], the “chemical shift perturbations, p75NTR TMD” value (p75^NTR TMD [1]) was “Significant chemical shifts”, the “effect of Ile252 mutation on compound activity in AraTM assay” value (p75^NTR TMD I252A) was “affected” and the “GFP/OD630, Mean” value (p75^NTR TMD I252A; compound 5 μM) was 0.99. The “GFP/OD630, individual replicates” value (p75^NTR TMD I252A; compound 5 μM) was 0.93 and 1.08 and 0.97, the “GFP/OD630, Mean” value (p75^NTR TMD I252A; compound 10 μM) was 0.85 and the “GFP/OD630, individual replicates” value (p75^NTR TMD I252A; compound 10 μM) was 0.76 and 0.91 and 0.89. For the same compound, the “GFP/OD630, Mean” value (p75^NTR TMD I252A; compound 20 μM) was 0.84, the “GFP/OD630, individual replicates” value (p75^NTR TMD I252A; compound 20 μM) was 1.01 and 0.83 and 0.69 and the “GFP/OD630, Mean” value (p75^NTR TMD I252A; compound 30 μM) was 0.73. The “GFP/OD630, individual replicates” value (p75^NTR TMD I252A; compound 30 μM) was 0.91 and 0.67 and 0.61, the “GFP/OD630, Mean” value (p75^NTR TMD I252A; compound 40 μM) was 0.72 and the “GFP/OD630, individual replicates” value (p75^NTR TMD I252A; compound 40 μM) was 0.77 and 0.62 and 0.76. For the same compound, the “effect of Val254 mutation on compound activity in AraTM assay” value (p75^NTR TMD V254A) was “unaffected”, the “GFP/OD630, Mean” value (p75^NTR TMD V254A; compound 5 μM) was 0.83 and the “GFP/OD630, individual replicates” value (p75^NTR TMD V254A; compound 5 μM) was 0.98 and 0.74 and 0.77. For the same compound, the “GFP/OD630, Mean” value (p75^NTR TMD V254A; compound 10 μM) was 0.64, the “GFP/OD630, individual replicates” value (p75^NTR TMD V254A; compound 10 μM) was 0.63 (2×) and 0.65 and the “GFP/OD630, Mean” value (p75^NTR TMD V254A; compound 20 μM) was 0.61. The “GFP/OD630, individual replicates” value (p75^NTR TMD V254A; compound 20 μM) was 0.46 and 0.62 and 0.74, the “GFP/OD630, Mean” value (p75^NTR TMD V254A; compound 30 μM) was 0.47 and the “GFP/OD630, individual replicates” value (p75^NTR TMD V254A; compound 30 μM) was 0.41 and 0.51 and 0.50. The “GFP/OD630, Mean” value (p75^NTR TMD V254A; compound 40 μM) was 0.54, the “GFP/OD630, individual replicates” value (p75^NTR TMD V254A; compound 40 μM) was 0.57 and 0.51 and 0.53 and the “effect of Pro253 mutation on compound activity in AraTM assay” value (p75^NTR TMD P253G) was “unaffected”. For the same compound, the “GFP/OD630, Mean” value (p75^NTR TMD P253G; compound 5 μM) was 0.71, the “GFP/OD630, individual replicates” value (p75^NTR TMD P253G; compound 5 μM) was 0.58 and 0.64 and 0.9 and the “GFP/OD630, Mean” value (p75^NTR TMD P253G; compound 10 μM) was 0.74. For the same compound, the “GFP/OD630, individual replicates” value (p75^NTR TMD P253G; compound 10 μM) was 0.6 and 0.87 and 0.74, the “GFP/OD630, Mean” value (p75^NTR TMD P253G; compound 20 μM) was 0.58 and the “GFP/OD630, individual replicates” value (p75^NTR TMD P253G; compound 20 μM) was 0.43 and 0.66 (2×). For the same compound, the “GFP/OD630, Mean” value (p75^NTR TMD P253G; compound 30 μM) was 0.52, the “GFP/OD630, individual replicates” value (p75^NTR TMD P253G; compound 30 μM) was 0.72 and 0.32 and 0.53 and the “GFP/OD630, Mean” value (p75^NTR TMD P253G; compound 40 μM) was 0.39. For the same compound, the “GFP/OD630, individual replicates” value (p75^NTR TMD P253G; compound 40 μM) was 0.36 (2×) and 0.44, the “IC50 in the AraTM assay, compared with Div17E5” value (p75^NTR TMD [2]) was “improved IC50 compared to Div17E5” and the “GFP/OD630, Mean” value (p75^NTR TMD [2]; compound 2 μM, Figure 5B) was 0.98. The “GFP/OD630, individual replicates” value (p75^NTR TMD [2]; compound 2 μM, Figure 5B) was 0.97 and 0.96 and 1.01, the “GFP/OD630, Mean” value (p75^NTR TMD [2]; compound 4 μM, Figure 5B) was 0.58 and the “GFP/OD630, individual replicates” value (p75^NTR TMD [2]; compound 4 μM, Figure 5B) was 0.59 and 0.58 and 0.56. For the same compound, the “GFP/OD630, Mean” value (p75^NTR TMD [2]; compound 6 μM, Figure 5B) was 0.46, the “GFP/OD630, individual replicates” value (p75^NTR TMD [2]; compound 6 μM, Figure 5B) was 0.46 and 0.49 and 0.42 and the “GFP/OD630, Mean” value (p75^NTR TMD [2]; compound 8 μM, Figure 5B) was 0.41. For the same compound, the “GFP/OD630, individual replicates” value (p75^NTR TMD [2]; compound 8 μM, Figure 5B) was 0.41 and 0.43 and 0.37, the “GFP/OD630, Mean” value (p75^NTR TMD [2]; compound 10 μM, Figure 5B) was 0.39 and the “GFP/OD630, individual replicates” value (p75^NTR TMD [2]; compound 10 μM, Figure 5B) was 0.36 and 0.38 and 0.43. The “activity in the AraTM assay” value (p75^NTR TMD [2]; structure-activity comparison) was “better performance at low micromolar concentrations; also recorded: best compounds; also recorded: best compound in the 4A series”, the “GFP/OD630, Mean” value (p75^NTR TMD [2]; wt, compound 5 μM, Figure 5C-E) was 0.78 and the “GFP/OD630, individual replicates” value (p75^NTR TMD [2]; wt, compound 5 μM, Figure 5C-E) was 0.78 and 0.81 and 0.74. For the same compound, the “GFP/OD630, Mean” value (p75^NTR TMD [2]; [3]) was 0.57, the “GFP/OD630, individual replicates” value (p75^NTR TMD [2]; [3]) was 0.53 and 0.48 and 0.68 and the “GFP/OD630, Mean” value (p75^NTR TMD [2]; [4]) was 0.49. The “GFP/OD630, individual replicates” value (p75^NTR TMD [2]; [4]) was 0.48 and 0.44 and 0.56, the “GFP/OD630, Mean” value (p75^NTR TMD [2]; [5]) was 0.34 and the “GFP/OD630, individual replicates” value (p75^NTR TMD [2]; [5]) was 0.46 and 0.29 and 0.27. The “GFP/OD630, Mean” value (p75^NTR TMD [2]; [6]) was 0.32, the “GFP/OD630, individual replicates” value (p75^NTR TMD [2]; [6]) was 0.31 and 0.34 and 0.30 and the “Cleaved PARP normalized to DMSO, individual replicates” value (A875 melanoma cells (NT); 0.5uM) was 5.004 and 2.098 and 0.920. For the same compound, the “Cleaved PARP/actin, individual replicates” value (“Cleaved PARP/actin” below) (A875 melanoma cells (NT); 0.5uM) was 0.036 and 0.018 and 0.00739, the “Cleaved PARP normalized to DMSO, Average” value (A875 melanoma cells (NT); 0.5μM) was 2.674 and the “Cleaved PARP normalized to DMSO, individual replicates” value (A875 melanoma cells (NT); 1uM) was 1.063 and 1.446 and 0.643. For the same compound, the “Cleaved PARP/actin” value (A875 melanoma cells (NT); 1uM) was 0.008 and 0.012 and 0.005, the “Cleaved PARP normalized to DMSO, Average” value (A875 melanoma cells (NT); 1μM) was 1.051 and the “Cleaved PARP normalized to DMSO, individual replicates” value (A875 melanoma cells (NT); 2uM) was 0.550 and 3.611 and 2.270. The “Cleaved PARP/actin” value (A875 melanoma cells (NT); 2uM) was 0.004 and 0.031 and 0.018, the “Cleaved PARP normalized to DMSO, Average” value (A875 melanoma cells (NT); 2μM) was 2.144 and the “Cleaved PARP normalized to DMSO, individual replicates” value (A875 melanoma cells (NT); 5uM) was 1.726 and 2.128 and 2.224. For the same compound, the “Cleaved PARP/actin” value (A875 melanoma cells (NT); 5uM) was 0.013 and 0.018, the “Cleaved PARP normalized to DMSO, Average” value (A875 melanoma cells (NT); 5μM) was 2.026 and the “apoptosis (PARP cleavage)” value (A875 melanoma cells (NT); submicromolar and low micromolar range (0.5 to 5 µM)) was “did not induce apoptosis”.
